Columns and labels:
AnGaaA = molecular target: T1, AnGaaA (Aspergillus niger, UniProt A8DRH9); experiment: HPLC of L-galactonate in cultures of expressing yeast; assay type: cell-based; conditions: whole cells, sorbitol co-substrate, YlSdr supplying NADPH, pH 6.3, 30 °C
T1 construct: gene gaaA; synthetic ORF codon optimized for S. cerevisiae; expressed from multicopy plasmid in yeast; whole-cell conversion
T1 sequence (A8DRH9 1-412): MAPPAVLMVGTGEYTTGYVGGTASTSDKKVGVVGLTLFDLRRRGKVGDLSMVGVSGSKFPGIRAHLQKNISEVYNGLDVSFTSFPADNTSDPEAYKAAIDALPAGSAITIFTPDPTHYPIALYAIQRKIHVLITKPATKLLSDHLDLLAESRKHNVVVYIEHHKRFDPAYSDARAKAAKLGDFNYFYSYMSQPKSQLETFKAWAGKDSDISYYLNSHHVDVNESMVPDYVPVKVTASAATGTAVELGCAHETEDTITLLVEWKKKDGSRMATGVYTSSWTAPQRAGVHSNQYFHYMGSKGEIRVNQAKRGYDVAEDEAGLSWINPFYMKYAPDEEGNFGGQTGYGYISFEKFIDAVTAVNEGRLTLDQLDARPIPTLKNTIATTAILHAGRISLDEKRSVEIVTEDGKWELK

AnGar1 [1] = molecular target: T2, AnGar1 (Aspergillus niger, UniProt A2R7U3); experiment: NAD(P)H oxidation at […] nm, yeast crude extract; HPLC of L-galactonate in cultures; assay type: biochemical; conditions: 100 mM GalA, NADPH, 10 mM potassium phosphate pH 7.2
T2 construct: gene An16g04770; synthetic ORF codon optimized for S. cerevisiae; expressed from plasmid in yeast CEN.PK2-1C, clear crude extract assayed against empty-vector control
T2 sequence (A2R7U3 1-319): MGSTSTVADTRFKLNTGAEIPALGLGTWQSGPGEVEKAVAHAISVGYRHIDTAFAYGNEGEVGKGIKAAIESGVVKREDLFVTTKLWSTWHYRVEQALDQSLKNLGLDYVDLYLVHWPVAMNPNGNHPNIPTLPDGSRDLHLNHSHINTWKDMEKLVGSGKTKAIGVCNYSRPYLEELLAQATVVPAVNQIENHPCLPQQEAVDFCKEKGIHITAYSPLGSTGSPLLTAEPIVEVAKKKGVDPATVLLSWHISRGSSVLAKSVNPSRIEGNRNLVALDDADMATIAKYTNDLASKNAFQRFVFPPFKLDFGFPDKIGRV

TrGar1 = molecular target: T3, TrGar1 (Trichoderma reesei, UniProt Q3ZFI7); experiment: HPLC of L-galactonate in cultures of expressing yeast; assay type: cell-based; conditions: whole cells, sorbitol co-substrate, YlSdr supplying NADPH, pH 6.3, 30 °C
T3 construct: gene gar1; synthetic ORF codon optimized for S. cerevisiae; expressed in yeast strains co-expressing GatA, Hxt13 and sorbitol dehydrogenase; whole-cell conversion
T3 sequence (Q3ZFI7 1-309): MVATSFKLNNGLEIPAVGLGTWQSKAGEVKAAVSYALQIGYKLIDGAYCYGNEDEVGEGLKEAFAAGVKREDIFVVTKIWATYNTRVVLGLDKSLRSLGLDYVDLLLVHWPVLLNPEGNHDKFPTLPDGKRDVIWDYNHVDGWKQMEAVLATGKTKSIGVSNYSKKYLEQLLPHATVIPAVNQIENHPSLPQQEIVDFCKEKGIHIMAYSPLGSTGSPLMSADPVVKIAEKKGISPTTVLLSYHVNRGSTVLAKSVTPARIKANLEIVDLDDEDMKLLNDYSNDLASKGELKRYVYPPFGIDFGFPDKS

AnGar1 [2] = molecular target: T2, AnGar1; experiment: NADPH oxidation at […] nm, yeast crude extract; assay type: biochemical; conditions: 100 mM GalA, 160 or 800 uM NADPH, 10 mM potassium phosphate pH 7.2
AnGar1 [3] = molecular target: T2, AnGar1; experiment: NADH oxidation at […] nm, yeast crude extract; assay type: biochemical; conditions: 160 or 800 uM NADH, 100 mM GalA, 10 mM potassium phosphate pH 7.2; competitive

With `O=C(O)[C@H]1OC(O)[C@H](O)[C@@H](O)[C@H]1O` (stereo partly drawn) [D-galacturonic acid] the “HPLC of L-galactonate in cultures of expressing yeast” value (AnGaaA) was “The lower titers observed with AnGaaA in comparison to TrGar1”, the “NAD(P)H oxidation at 340 nm, yeast crude extract; HPLC of L-galactonate in cultu” value (AnGar1 [1]) was “we demonstrate, for the first time, the activity of AnGar1 as a GalA reductase” and the “HPLC of L-galactonate in cultures of expressing yeast” value (TrGar1) was “Wildtype TrGar1 and AnGar1 produce comparable amount of GalOA”.

`NC(=O)C1=CN([C@@H]2O[C@H](COP(=O)(O)OP(=O)(O)OC[C@H]3O[C@@H](n4cnc5c(N)ncnc54)[C@H](OP(=O)(O)O)[C@@H]3O)[C@@H](O)[C@H]2O)C=CC1` [NADPH] was tested, and the “NADPH oxidation at 340 nm, yeast crude extract” value (AnGar1 [2]) was “lower compared to those with NADPH of the wildtype enzyme”.

With `NC(=O)c1ccc[n+]([C@@H]2O[C@H](COP(=O)(O)OP(=O)(O)OC[C@H]3O[C@@H](n4cnc5c(N)ncnc54)[C@H](OP(=O)(O)O)[C@@H]3O)[C@@H](O)[C@H]2O)c1` [NADP] the “relative activity (% of activity without NADP)” value (AnGar1 [3]) was “when NADP was added to competitively inhibit NADH binding, only the mutants were able”.
